This is an account of results in patent US20150315188A1, “COMPOUNDS AND METHODS FOR TREATMENT OF HYPERTENSION” (MEDIVATION TECHNOLOGIES, INC., priority 2012, published 2015).

Holding throughout (parameters): purchased Milipore (Millipore)
The target of assay [1] is T1, Human adrenergic α1B receptor (Homo sapiens, UniProt P35368).
T1 sequence (P35368 1-520): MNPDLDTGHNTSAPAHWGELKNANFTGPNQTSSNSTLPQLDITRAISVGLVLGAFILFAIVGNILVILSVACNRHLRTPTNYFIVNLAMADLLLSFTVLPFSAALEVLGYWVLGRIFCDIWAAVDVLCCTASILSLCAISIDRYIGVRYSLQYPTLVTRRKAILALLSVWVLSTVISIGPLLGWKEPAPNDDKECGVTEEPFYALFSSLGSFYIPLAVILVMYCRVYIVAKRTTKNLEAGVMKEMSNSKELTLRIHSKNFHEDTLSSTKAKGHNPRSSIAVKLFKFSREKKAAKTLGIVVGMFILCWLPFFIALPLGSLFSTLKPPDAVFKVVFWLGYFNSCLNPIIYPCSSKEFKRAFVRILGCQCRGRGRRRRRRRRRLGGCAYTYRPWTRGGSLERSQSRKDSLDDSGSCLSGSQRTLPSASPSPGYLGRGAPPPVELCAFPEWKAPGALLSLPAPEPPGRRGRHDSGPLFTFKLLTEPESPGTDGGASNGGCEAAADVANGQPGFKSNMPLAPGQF
In words: Radioligand binding, adrenergic α1B (Protocol Group B). The settings on record: Protocol Group B; for Percentage inhibition of ligand binding, Adrenergic α1B (0.1 μM) / inhibition at 0.1 µM: 0.1 μM compound; for Percentage inhibition of ligand binding, Adrenergic α1B (0.3 μM) / inhibition at 0.3 µM: 0.3 μM compound; for Ki: estimated Ki; for inhibition at 0.1 µM: read-out: Percentage inhibition of ligand binding, Adrenergic α1B (0.1 μM); for inhibition at 0.3 µM: read-out: Percentage inhibition of ligand binding, Adrenergic α1B (0.3 μM). The procedure, abridged:
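Values are percent inhibition of specific [3H]prazosin (0.3 nM) binding or estimated Ki, from filtration counting. Human α1B recombinant membranes, Tris-HCl pH 7.4 buffer with MgCl2 and EDTA, 60 min at 25 °C, 1% DMSO vehicle; 10 μM prazosin defined nonspecific binding.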

Assay [2] has as its target T2, Human adrenergic α2B receptor (Homo sapiens, UniProt P18089).
T2 sequence (P18089 1-450): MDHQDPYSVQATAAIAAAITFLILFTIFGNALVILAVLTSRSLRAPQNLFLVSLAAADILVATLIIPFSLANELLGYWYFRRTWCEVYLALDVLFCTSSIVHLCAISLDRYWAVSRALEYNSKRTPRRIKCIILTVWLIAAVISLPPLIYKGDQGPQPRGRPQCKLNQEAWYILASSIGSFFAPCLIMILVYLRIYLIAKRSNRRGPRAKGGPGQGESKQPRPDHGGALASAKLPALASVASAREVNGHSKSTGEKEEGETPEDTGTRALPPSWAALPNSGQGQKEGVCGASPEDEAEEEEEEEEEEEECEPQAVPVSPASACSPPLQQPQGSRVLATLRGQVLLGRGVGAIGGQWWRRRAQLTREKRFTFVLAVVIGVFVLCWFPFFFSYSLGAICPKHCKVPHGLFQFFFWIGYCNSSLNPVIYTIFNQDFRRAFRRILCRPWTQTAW
In words: Radioligand binding, adrenergic α2B (Protocol Group B). As to conditions: Protocol Group B; for inhibition at 0.01 µM / Percentage inhibition of ligand binding, Adrenergic α2B (10 nM): 10 nM compound; for inhibition at 0.01 µM: read-out: Percentage inhibition of ligand binding, Adrenergic α2B (10 nM); for inhibition at 0.03 µM / Percentage inhibition of ligand binding, Adrenergic α2B (30 nM): 30 nM compound; for inhibition at 0.03 µM: read-out: Percentage inhibition of ligand binding, Adrenergic α2B (30 nM); for inhibition at 0.1 µM / Percentage inhibition of ligand binding, Adrenergic α2B (0.1 μM): 0.1 μM compound; for inhibition at 0.1 µM: read-out: Percentage inhibition of ligand binding, Adrenergic α2B (0.1 μM); for Ki: estimated Ki, read-out: Ki α2B; for Percentage inhibition of ligand binding, Adrenergic α2B (10 nM): 0.01 µM; for Percentage inhibition of ligand binding, Adrenergic α2B (30 nM): 0.03 µM. The procedure, abridged: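 Compounds at various concentrations in 1% DMSO were tested on recombinant membranes in Tris-HCl pH 7.4 buffer containing MgCl2, CaCl2 and 0.2% BSA.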

The target of assay [3] is T3, Human adrenergic α2A receptor (Homo sapiens, UniProt P08913).
T3 sequence (P08913 1-465): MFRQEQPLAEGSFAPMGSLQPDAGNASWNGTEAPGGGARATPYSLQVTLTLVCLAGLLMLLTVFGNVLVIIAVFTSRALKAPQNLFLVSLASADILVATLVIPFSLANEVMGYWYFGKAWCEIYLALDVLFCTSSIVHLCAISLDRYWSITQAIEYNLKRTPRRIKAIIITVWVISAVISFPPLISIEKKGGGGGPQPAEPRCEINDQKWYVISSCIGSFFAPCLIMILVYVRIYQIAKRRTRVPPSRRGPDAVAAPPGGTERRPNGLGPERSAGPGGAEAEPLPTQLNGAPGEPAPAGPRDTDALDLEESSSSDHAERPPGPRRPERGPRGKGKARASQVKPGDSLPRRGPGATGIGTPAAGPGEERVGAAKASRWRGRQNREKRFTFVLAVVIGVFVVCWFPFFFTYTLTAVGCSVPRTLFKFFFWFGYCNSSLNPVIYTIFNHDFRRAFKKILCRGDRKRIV
In words: Radioligand binding, adrenergic α2A (Protocol Group B). The settings on record: Protocol Group B; for Percentage inhibition of ligand binding, Adrenergic α2A (0.1 μM) / inhibition at 0.1 µM: 0.1 μM compound; for Percentage inhibition of ligand binding, Adrenergic α2A (0.3 μM) / inhibition at 0.3 µM: 0.3 μM compound; for Ki: estimated Ki; for inhibition at 0.1 µM: read-out: Percentage inhibition of ligand binding, Adrenergic α2A (0.1 μM); for inhibition at 0.3 µM: read-out: Percentage inhibition of ligand binding, Adrenergic α2A (0.3 μM). The procedure, abridged:
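Compounds (1% DMSO vehicle, various concentrations) competed against 2 nM [^3H]MK-912 on recombinant receptor membranes for 60 min at 25° C, Tris-HCl pH 7.4 buffer with Mg2+, Ca2+, BSA. Bound radioligand filtered and counted; 10 μM rauwolscine set nonspecific binding. Values: percent inhibition of specific binding or estimated Ki.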

Take `Cc1ccc2c(c1)c1c(n2CC(OC2CCCC2)c2ccncc2)CCN(C)C1` (single isomer, unassigned) [35a]: in assay [1], the “Percentage inhibition of ligand binding, Adrenergic α1B (0.1 μM)” value is on record as 40%; the “Percentage inhibition of ligand binding, Adrenergic α1B (0.3 μM)” value came to 71%; the Ki (usually a measure of affinity in units of concentration, obtained from inhibition or displacement) was 60 nM. Moreover, in assay [2], the inhibition (in general, how much of the control response was suppressed) at 0.01 µM is 63%; the inhibition at 0.03 µM was 86%; the inhibition at 0.1 µM is 96%; the Ki is 2.9 nM. For the same molecule, in assay [3], the “Percentage inhibition of ligand binding, Adrenergic α2A (0.1 μM)” value is recorded as 67%; the “Percentage inhibition of ligand binding, Adrenergic α2A (0.3 μM)” value is 86%; the Ki is 28.5 nM.
Regarding `CCCOC(Cn1c2c(c3cc(C)ccc31)CN(C)CC2)c1ccncc1` (single isomer, unassigned) [42a], in assay [1], the inhibition at 0.1 µM came out at 44%; the “Percentage inhibition of ligand binding, Adrenergic α1B (0.3 μM)” value was determined as 70%; the inhibitory constant (Ki) is 54 nM. Besides, in assay [2], the inhibition at 0.01 µM stood at 74%, the inhibition at 0.03 µM stood at 89%, the inhibition at 0.1 µM stood at 97% and the Ki is 2.3 nM. Further, in assay [3], the inhibition at 0.1 µM amounted to 37%, the inhibition at 0.3 µM is 63% and the inhibition constant (Ki) was 55 nM.
For `CCCOC(Cn1c2c(c3cc(C)ccc31)CN(C)CC2)c1ccncc1` (single isomer, unassigned) [42b], in assay [1], the “Percentage inhibition of ligand binding, Adrenergic α1B (0.1 μM)” value came to 27%; the “Percentage inhibition of ligand binding, Adrenergic α1B (0.3 μM)” value was found to be 45%; the inhibition constant (Ki) is 199 nM. For the same molecule, in assay [2], the “Percentage inhibition of ligand binding, Adrenergic α2B (10 nM)” value (“Percentage inhibition … (10 nM)” for short) is recorded as 86%; the “Percentage inhibition of ligand binding, Adrenergic α2B (30 nM)” value (from here on “Percentage inhibition … (30 nM)”) worked out at 97%; the “Percentage inhibition of ligand binding, Adrenergic α2B (0.1 μM)” value was 100%; the Ki is 1.3 nM. For the same molecule, in assay [3], the “Percentage inhibition of ligand binding, Adrenergic α2A (0.1 μM)” value is listed as 32%; the “Percentage inhibition of ligand binding, Adrenergic α2A (0.3 μM)” value amounted to 48%; the inhibition constant (Ki) was 154 nM.
As for `CCOC(Cn1c2c(c3cc(C)ccc31)CN(C)CC2)c1ccncc1` (single isomer, unassigned) [43a], in assay [1], the “Percentage inhibition of ligand binding, Adrenergic α1B (0.1 μM)” value amounted to 29%; the “Percentage inhibition of ligand binding, Adrenergic α1B (0.3 μM)” value is 55%; the inhibitory constant (Ki) was 111 nM. Besides, in assay [2], the inhibition at 0.01 µM came to 64%, the inhibition at 0.03 µM is 85%, the inhibition at 0.1 µM turned out to be 96% and the Ki was 2.8 nM. In assay [3], the “Percentage inhibition of ligand binding, Adrenergic α2A (0.1 μM)” value was 46%; the “Percentage inhibition of ligand binding, Adrenergic α2A (0.3 μM)” value is given as 63%; the inhibitory constant (Ki) is 50 nM.
Regarding `CCOC(Cn1c2c(c3cc(C)ccc31)CN(C)CC2)c1ccncc1` (single isomer, unassigned) [43b], in assay [1], the “Percentage inhibition of ligand binding, Adrenergic α1B (0.1 μM)” value turned out to be 14%; the “Percentage inhibition of ligand binding, Adrenergic α1B (0.3 μM)” value stood at 30%; the Ki is 278 nM. Also, in assay [2], the “Percentage inhibition … (10 nM)” value turned out to be 71%; the “Percentage inhibition … (30 nM)” value is reported as 89%; the “Percentage inhibition of ligand binding, Adrenergic α2B (0.1 μM)” value was found to be 98%; the Ki was 2.1 nM. Moreover, in assay [3], the “Percentage inhibition of ligand binding, Adrenergic α2A (0.1 μM)” value is 14%; the “Percentage inhibition of ligand binding, Adrenergic α2A (0.3 μM)” value amounted to 28%; the Ki is 374 nM.
In the case of `Cc1cc(C)c2c(c1)c1c(n2CC(C)(O)c2cccnc2)CCN2CCCC12` (single isomer, unassigned) [44a], in assay [1], the “Percentage inhibition of ligand binding, Adrenergic α1B (0.1 μM)” value turned out to be 40%; the inhibition at 0.3 µM amounted to 71%; the Ki was 63.7 nM. Further, in assay [2], the “Percentage inhibition … (10 nM)” value stood at 71%; the inhibition at 0.03 µM is 87%; the inhibition at 0.1 µM turned out to be 95%; the inhibition constant Ki was 2.2 nM. Also, in assay [3], the “Percentage inhibition of ligand binding, Adrenergic α2A (0.1 μM)” value was determined as 47%; the “Percentage inhibition of ligand binding, Adrenergic α2A (0.3 μM)” value is 70%; the Ki was 114 nM.
On to `Cc1cc(C)c2c(c1)c1c(n2CC(C)(O)c2cccnc2)CCN2CCCC12` (single isomer, unassigned) [44b], for which, in assay [1], the “Percentage inhibition of ligand binding, Adrenergic α1B (0.1 μM)” value came to 69%; the “Percentage inhibition of ligand binding, Adrenergic α1B (0.3 μM)” value came out at 85%; the Ki was 14 nM. In addition, in assay [2], the “Percentage inhibition … (10 nM)” value worked out at 98%; the “Percentage inhibition … (30 nM)” value was 98%; the “Percentage inhibition of ligand binding, Adrenergic α2B (0.1 μM)” value is reported as 100%; the Ki is 0.81 nM. Besides, in assay [3], the “Percentage inhibition of ligand binding, Adrenergic α2A (0.1 μM)” value was 89%; the “Percentage inhibition of ligand binding, Adrenergic α2A (0.3 μM)” value was determined as 98%; the inhibition constant Ki is 6.2 nM.
For `Cc1ccc2c(c1)c1c(n2CC(C)(O)c2ccnc(F)c2)CCN2CCCC12` (single isomer, unassigned) [48a], in assay [1], the inhibition at 0.1 µM amounted to 85%, the inhibition at 0.3 µM amounted to 94% and the Ki was 8.15 nM. Besides, in assay [2], the inhibition at 0.01 µM came out at 93%, the inhibition at 0.03 µM turned out to be 94%, the inhibition at 0.1 µM was 94% and the Ki was 1.25 nM. Moreover, in assay [3], the inhibition at 0.1 µM is 73%, the inhibition at 0.3 µM was 82% and the Ki was 31.1 nM.
As to `Cc1ccc2c(c1)c1c(n2CC(C)(O)c2ccnc(F)c2)CCN2CCCC12` (single isomer, unassigned) [48b], in assay [1], the “Percentage inhibition of ligand binding, Adrenergic α1B (0.1 μM)” value is listed as 71%; the “Percentage inhibition of ligand binding, Adrenergic α1B (0.3 μM)” value is recorded as 84%; the Ki was 25.9 nM. In assay [2], the “Percentage inhibition … (10 nM)” value turned out to be 92%; the “Percentage inhibition … (30 nM)” value is reported as 93%; the “Percentage inhibition of ligand binding, Adrenergic α2B (0.1 μM)” value is listed as 91%; the Ki was 0.89 nM. In assay [3], the “Percentage inhibition of ligand binding, Adrenergic α2A (0.1 μM)” value stood at 83%; the “Percentage inhibition of ligand binding, Adrenergic α2A (0.3 μM)” value stood at 87%; the inhibition constant (Ki) is 16.4 nM.
On to `Cc1cc2c3c(n(CC(C)(O)c4ccncc4)c2cc1Cl)CCN1CCCC31` (single isomer, unassigned) [50a], for which, in assay [1], the inhibition at 0.1 µM came out at 89%, the inhibition at 0.3 µM came out at 96% and the Ki was 3.7 nM. Further, in assay [2], the inhibition at 0.01 µM came out at 95%, the inhibition at 0.03 µM is 99%, the inhibition at 0.1 µM is 100% and the Ki was 0.75 nM. In addition, in assay [3], the inhibition at 0.1 µM was 72%, the inhibition at 0.3 µM amounted to 83% and the Ki is 6.7 nM.
